Assay results from article PMC11157767 (Molecular Cancer, 2024).
Values joined by “and” are separate entries in the source; they are usually repeats but may differ in a detail not shown here. Equal values may be shown once. Read-outs that look alike come from different tables or passages of the source.

How the values were obtained:
[1] = Brain pharmacokinetics in CD-1 nude mice (NCA); assay type: in vivo, mouse
Description: (§1) Fig. 2 TFG-MET-driven mouse model and pharmacokinetic profiles of MET inhibitors. a Schematic illustrating the method and utilized vectors to induce CRISPR/Cas9-mediated Trp53 deletion and TFG-MET overexpression following in utero electroporations. b H&E staining and Immunohistochemical analysis of a tumor generated by in utero electroporation, visualized by the HA-tag of TFG-MET. […] Three mice were analyzed per compound and time point. Error bars indicate the standard deviation. Dashed rectangles indicate time windows of radiation in the following preclinical allograft study
(§2) See Methods – Pharmacokinetics section for a description of abbreviations.

[2] = In vitro protein binding assay, culture media; assay type: in vitro ADME; conditions: read-out: unbound drug fraction, Culture Media, AVG
pMET, pErk, pAkt = test: Phosphoprotein IHC/western blot in TFG-MET allograft tumors (PD and Survival cohort); assay type: in vivo, mouse
Description: Error bars display standard error of the mean. Statistical significance was determined using a One-Way ANOVA followed by Tukey’s multiple comparisons test (*p<0.05, **p<0.01, ***p<0.001, ****p<0.0001)

Kap1 pS824 = test: Western blot of phosphorylated Kap1 (pS824) in TFG-MET allograft tumors; assay type: in vivo, mouse; conditions: capmatinib and RT
Description: Error bars display standard error of mean, statistical significance was determined using t-test analysis. (****;p<0.0001, ***;p<0.001, **;p<0.01, *;p<0.05). […] Each dot represents an individual replicate. Error bars display standard error of the mean. Statistical significance was determined using a One-Way ANOVA followed by Tukey’s multiple comparisons test (*p<0.05, **p<0.01, ***p<0.001, ****p<0.0001).

TFG-MET cells = test: γH2AX immunofluorescence after 8Gy irradiation, TFG-MET cells; assay type: cell-based, mouse; conditions: various time points following 8Gy irradiation
Description: Error bars display standard error of mean, statistical significance determined using t-test analysis, *;p<0.05. Scale bar is 10µm.

[3] = In vitro protein binding assay, naive mouse brain tissue homogenate
TFG-MET allograft tumors = test: TFG-MET allograft preclinical trial in CD1 mice, Survival cohort (survival, BLI, body weight); assay type: in vivo, mouse; conditions: for BLI signal, individual mice: Murine allografts
Description: All treatments started 1 week after transplantation. Radio therapy was administered for 6 days, delivering 12 Gy total. Compound treatment was continued for 84 days. […] N = 8 (vehicle arms) or n = 10 (compound-treated arms), respectively. […] First row is depicted in another intensity scale to visualize tumors in all mice. The depicted scale bar indicates the range from 5x10^5-1x10^7 photons/sec/cm^2/sr.
Survival, body weight and tumor burden data from TFG-MET allograft-bearing mice. a,Schematic illustrating the preliminary in vivo study to determine the efficacy of RT alone. b, Survival curve of mice depicted in a. […] Each line represents one mouse. The ends of lines indicate the onset of neurological symptoms and thereby the endpoints.
Bioluminescence signals of in vivo trials.

[4] = Plasma pharmacokinetics in CD-1 nude mice (NCA); assay type: in vivo, mouse
Description: as §1, §2

[5] = CD-1 nude, mouse, 25 mg/kg, Brain, NCA estimate
[6] = CD-1 nude, mouse, Brain, NCA estimate
[7] = CD-1 nude, mouse, Plasma, NCA estimate

SMILES: CNC(=O)c1ccc(-c2cnc3ncc(Cc4ccc5ncccc5c4)n3n2)cc1F [Capmatinib]
- Clast ([1]; Brain, NCA estimate): 42.4 ng/mL
- Tlast ([1]; Brain, NCA estimate): 8 h
- brain concentration at 16 hours post-dose ([1]; CD1 nude mice): below the detection limit
- maximal concentration of unbound drug in the brain ([1]; CD1 nude mice, estimated with Fu,b): ~ 103 nM
- concentration reached in brain tissues ([1]; CD1 nude mice, total drug): > 1000 nM
- AUC(0-inf) [1, 5]: 1260 ng·h/mL
- CL/F [1, 5]: 330 mL/min/kg
- half-life [1, 5]: 2.34 h
- k el [1, 5]: 8.22e-05 s⁻¹
- Kp ([1]; CD-1 nude, mouse, 25 mg/kg, Brain, NCA estimate, read-out: Kp,inf): 0.0768
- Vd/F ([1]; CD-1 nude, mouse, 25 mg/kg, Brain, NCA estimate, read-out: Vz/F): 67 L/kg
- AUC(0-t) [1, 6]: 1140 ng·h/mL
- Cmax [1, 6]: 486 ng/mL
- Tmax [1, 6]: 0.5 h
- Kp ([1]; CD-1 nude, mouse, Brain, NCA estimate, read-out: Kp,last): 0.0765
- time after administration with higher effective exposure in the murine brain than crizotinib ([1]; mouse, in vivo): up to 8 hours
- fraction unbound [2]: 0.705
- levels of phosphorylated MET, Erk and Akt in initial neoplasms (pMET, pErk, pAkt; PD cohort, after second treatment, vs vehicle): greatly reduced levels
- animals with pMET and pErk reduced to background levels (pMET, pErk, pAkt; Survival cohort, sacrificed under treatment): 4/6
- phosphorylated Kap1 in tumors vs vehicle + RT (Kap1 pS824): significantly greater increase
- percentage of cells with ≥10 γH2AX-foci vs DMSO (TFG-MET cells): significantly higher
- fraction unbound [3]: 0.113
- BLI signal, individual mice (TFG-MET allograft tumors; day 7, drug + RT): 2.90E+08 and 3.10E+06 and 2.30E+07 and 4.30E+06 and 9.70E+05 and 1.20E+06 and 8.80E+06 and 3.20E+06 and 7.40E+06 and 6.80E+07
- BLI signal, individual mice (TFG-MET allograft tumors; day 7, drug alone): 2.90E+06 and 5.20E+06 and 4.80E+06 and 3.30E+07
- BLI signal, individual mice (TFG-MET allograft tumors; day 10, drug + RT): 1.80E+08 and 2.30E+06 and 4.90E+07 and 1.20E+07 and 6.70E+06 and 5.70E+05 and 1.10E+07 and 1.60E+06 and 6.20E+06 and 3.60E+07
- BLI signal, individual mice (TFG-MET allograft tumors; day 10, drug alone): 2.30E+06 and 7.80E+06 and 1.50E+07 and 6.40E+07
- BLI signal, individual mice (TFG-MET allograft tumors; day 14, drug + RT): 2.10E+08 and 3.20E+06 and 6.50E+07 and 1.30E+07 and 3.10E+05 and 1.60E+05 and 7.60E+06 and 6.60E+05 and 1.20E+08
- BLI signal, individual mice (TFG-MET allograft tumors; day 14, drug alone): 8.30E+06 and 6.10E+07 and 2.00E+07 and 6.20E+07
- BLI signal, individual mice (TFG-MET allograft tumors; day 21, drug + RT): 1.10E+05 and 1.60E+05 and 1.30E+05 and 1.50E+07 and 5.10E+06 and 3.60E+06 and 6.20E+06 and 1.40E+05 and 9.20E+06
- BLI signal, individual mice (TFG-MET allograft tumors; day 21, drug alone): 8.80E+07 and 2.30E+08 and 7.60E+07 and 2.10E+08
- BLI signal, individual mice (TFG-MET allograft tumors; day 28, drug + RT): 1.10E+05 and 1.60E+05 and 2.00E+05 and 2.20E+08 and 4.30E+07 and 3.30E+07 and 5.10E+07 and 1.50E+05 and 5.80E+06
- BLI signal, individual mice (TFG-MET allograft tumors; day 28, drug alone): 5.10E+08 and 5.20E+08 and 2.60E+08 and 1.90E+08
- BLI signal, individual mice (TFG-MET allograft tumors; day 35, drug + RT): 1.10E+05 and 1.50E+05 and 1.40E+05 and 9.90E+05 and 1.00E+07
- BLI signal, individual mice (TFG-MET allograft tumors; day 42, drug + RT): 1.20E+05 and 1.30E+05 and 1.40E+05 and 2.50E+06 and 4.40E+07
- BLI signal, individual mice (TFG-MET allograft tumors; day 49, drug + RT): 1.30E+05 and 1.20E+05 and 7.40E+06
- BLI signal, individual mice (TFG-MET allograft tumors; day 56, drug + RT): 1.00E+05 and 1.40E+05 and 1.50E+05 and 6.60E+07 and 1.20E+08
- BLI signal, individual mice (TFG-MET allograft tumors; day 63, drug + RT): 1.10E+05 and 2.00E+05 and 1.40E+05 and 1.90E+08
- BLI signal, individual mice (TFG-MET allograft tumors; day 70, drug + RT): 1.10E+05 and 1.20E+05
- BLI signal, individual mice (TFG-MET allograft tumors; day 77, drug + RT): 1.02E+05 and 1.30E+05 and 1.10E+05
- BLI signal, individual mice (TFG-MET allograft tumors; day 84, drug + RT): 1.06E+05 and 9.93E+04 and 1.20E+05
- BLI signal, individual mice (TFG-MET allograft tumors; day 91, drug + RT): 9.34E+04 and 1.44E+05 and 1.14E+05
- animals with reduction of tumor burden by week 3 (BLI) (TFG-MET allograft tumors; capmatinib + RT (12 Gy)): 8/10
- increase of survival rate (TFG-MET allograft tumors; capmatinib + RT (12 Gy), Survival cohort): 3 fold
- mice reaching 140 days after transplantation without residual tumor (TFG-MET allograft tumors; capmatinib + RT arm, n = 10): Three
- plasma concentration at 16 hours post-dose ([4]; CD1 nude mice): below the detection limit
- AUC ([4]; CD-1 nude, mouse, plasma, 25 mg/kg, read-out: total plasma AUC): 16400 ng·h/mL
- AUC(0-inf) [4, 7]: 16400 ng·h/mL
- AUC(0-t) [4, 7]: 14900 ng·h/mL
- CL/F [4, 7]: 25.3 mL/min/kg
- Cmax [4, 7]: 6200 ng/mL
- Tmax [4, 7]: 0.5 h
- half-life [4, 7]: 2.27 h
- k el [4, 7]: 8.47e-05 s⁻¹
- Vd/F ([4]; CD-1 nude, mouse, Plasma, NCA estimate, read-out: Vz/F): 4.99 L/kg
- Clast ([4]; Plasma, NCA estimate): 540 ng/mL
- Tlast ([4]; Plasma, NCA estimate): 8 h
